{
  "source": "patent US4052409A",
  "about": "“Disubstituted triphenylmethylimidazoles” (Bayer Aktiengesellschaft, priority 1972, dated 1977)",
  "data": [
    {"system": "Trichophyton mentagrophytes", "experiment": "Topical application in experimental trichophytosis of guinea pigs", "assay_type": "in vivo", "design": "key: ++: slight action = reduction of symptons of the infection; +++: action = rapid healing of the infection; ++++: good action = complete suppression of symptoms of the infection", "details": "1% strength solution, topically for 11 to 14 days", "text": "a. Topical application in experimental trichophytosis of guinea pigs (excitant: Trichophyton mentagrophytes)\nA 1% strength solution of the active compound in a dimethylsulphoxide/glycerine/water mixture (1:3:6) or in polyethylene glycol 400 was applied topically for 11 to 14 days after the trichophytosis had been caused experimentally.", "values": [
      {"smiles": "Clc1cccc(C(c2ccccc2)(c2ccccc2)n2ccnc2)c1Cl", "note": "[Example 6]", "Action in trichophytosis of guinea pigs": "++"},
      {"smiles": "Cc1ccc(C(c2ccccc2)(c2ccccc2)n2ccnc2)c(C)c1", "note": "[Example 2]", "Action in trichophytosis of guinea pigs": "++++"}
    ]},
    {"system": "Microsporon canis", "experiment": "Antimycotic activity in vitro, series dilution test", "assay_type": "cell-based", "details": "28° C, 24 to 96 hours; serum not stated; read-out: Minimum Inhibitory Concentration", "protocol": "(§1) Determination of the antimycotic spectrum of activity in vitro by the series dilution test.\n(§2) The nutrient media used were Sabouraud's milieu d'epreuve for dermatophytes and molds and meat broth-glucose bouillon for blastomycetes and biphase fungi.\n(§3) The incubation temperature was 28° C and the incubation time was 24 to 96 hours.", "units": {"MIC": "µg/mL"}, "values": [
      {"smiles": "Clc1cccc(C(c2ccccc2)(c2ccccc2)n2ccnc2)c1Cl", "note": "[Example 6]", "MIC": "< 1"},
      {"smiles": "Clc1ccccc1C(c1ccccc1)(c1ccccc1Cl)n1ccnc1", "note": "[Example 9 (from Table 1), 1-(2-Chlorophenyl-2'-chlorophenyl-phenyl) -methyl-imidazole]", "MIC": "< 1"},
      {"smiles": "Cc1ccccc1C(c1ccccc1)(c1ccccc1C)n1ccnc1", "note": "[Example 8 (from Table 1), 1-(2-Methylphenyl-2'-methylphenyl-phenyl)-methyl-imidazole]", "MIC": 4},
      {"smiles": "Cc1cccc(C(c2ccccc2)(c2ccccc2)n2ccnc2)c1C", "note": "[Example 1 (from Table 1), 1-(2,3-dimethylphenyl-diphenyl)-methyl-imidazole]", "MIC": 4},
      {"smiles": "Cc1cc(Cl)ccc1C(c1ccccc1)(c1ccccc1)n1ccnc1", "note": "[Example 4 (from Table 1), 1-(2-Methyl-4-chlorophenyl-diphenyl)-methyl-imidazole]", "MIC": 4},
      {"smiles": "Cc1ccc(C(c2ccccc2)(c2ccccc2)n2ccnc2)c(C)c1", "note": "[Example 2]", "MIC": 4},
      {"smiles": "Cc1ccc(C)c(C(c2ccccc2)(c2ccccc2)n2ccnc2)c1", "note": "[Example 3 (from Table 1), 1-(2,5-Dimethylphenyl-diphenyl)-methyl-imidazole]", "MIC": 4},
      {"smiles": "Clc1cccc(Cl)c1C(c1ccccc1)(c1ccccc1)n1ccnc1", "note": "[Example 7 (from Table 1), 1-(2,6-Dichlorophenyl-diphenyl)-methyl-imidazole]", "MIC": "< 1"}
    ]},
    {"system": "Candida albicans", "experiment": "Antimycotic activity in vitro, series dilution test", "assay_type": "cell-based", "details": "n.s. = no added serum, 28° C, 24 to 96 hours, read-out: Minimum Inhibitory Concentration", "protocol": "as §1, §2, §3", "units": {"MIC": "µg/mL"}, "values": [
      {"smiles": "Clc1cccc(C(c2ccccc2)(c2ccccc2)n2ccnc2)c1Cl", "note": "[Example 6]", "MIC": 1},
      {"smiles": "Cc1ccc(C(c2ccccc2)(c2ccccc2)n2ccnc2)c(C)c1", "note": "[Example 2]", "MIC": 1}
    ]},
    {"system": "Candida albicans", "experiment": "Antimycotic activity in vitro, series dilution test", "assay_type": "cell-based", "details": "w.s. = with 30% serum added, 28° C, 24 to 96 hours, read-out: Minimum Inhibitory Concentration", "protocol": "as §1, §2, §3", "units": {"MIC": "µg/mL"}, "values": [
      {"smiles": "Cc1ccccc1C(c1ccccc1)(c1ccccc1C)n1ccnc1", "note": "[Example 8 (from Table 1), 1-(2-Methylphenyl-2'-methylphenyl-phenyl)-methyl-imidazole]", "MIC": 10}
    ]},
    {"system": "Aspergillus niger", "experiment": "Antimycotic activity in vitro, series dilution test", "assay_type": "cell-based", "details": "n.s. = no added serum, 28° C, 24 to 96 hours, read-out: Minimum Inhibitory Concentration", "protocol": "as §1, §2, §3", "units": {"MIC": "µg/mL"}, "values": [
      {"smiles": "Clc1cccc(C(c2ccccc2)(c2ccccc2)n2ccnc2)c1Cl", "note": "[Example 6]", "MIC": "< 1"},
      {"smiles": "Clc1ccccc1C(c1ccccc1)(c1ccccc1Cl)n1ccnc1", "note": "[Example 9 (from Table 1), 1-(2-Chlorophenyl-2'-chlorophenyl-phenyl) -methyl-imidazole]", "MIC": "< 1"},
      {"smiles": "Cc1ccccc1C(c1ccccc1)(c1ccccc1C)n1ccnc1", "note": "[Example 8 (from Table 1), 1-(2-Methylphenyl-2'-methylphenyl-phenyl)-methyl-imidazole]", "MIC": "< 1"},
      {"smiles": "Cc1cc(Cl)ccc1C(c1ccccc1)(c1ccccc1)n1ccnc1", "note": "[Example 4 (from Table 1), 1-(2-Methyl-4-chlorophenyl-diphenyl)-methyl-imidazole]", "MIC": 1},
      {"smiles": "Cc1ccc(C(c2ccccc2)(c2ccccc2)n2ccnc2)c(C)c1", "note": "[Example 2]", "MIC": 1},
      {"smiles": "Cc1ccc(C)c(C(c2ccccc2)(c2ccccc2)n2ccnc2)c1", "note": "[Example 3 (from Table 1), 1-(2,5-Dimethylphenyl-diphenyl)-methyl-imidazole]", "MIC": 1},
      {"smiles": "Clc1cccc(Cl)c1C(c1ccccc1)(c1ccccc1)n1ccnc1", "note": "[Example 7 (from Table 1), 1-(2,6-Dichlorophenyl-diphenyl)-methyl-imidazole]", "MIC": "< 1"}
    ]},
    {"system": "Aspergillus niger", "experiment": "Antimycotic activity in vitro, series dilution test", "assay_type": "cell-based", "details": "w.s. = with 30% serum added, 28° C, 24 to 96 hours, read-out: Minimum Inhibitory Concentration", "protocol": "as §1, §2, §3", "units": {"MIC": "µg/mL"}, "values": [
      {"smiles": "Clc1cccc(C(c2ccccc2)(c2ccccc2)n2ccnc2)c1Cl", "note": "[Example 6]", "MIC": 10},
      {"smiles": "Cc1ccccc1C(c1ccccc1)(c1ccccc1C)n1ccnc1", "note": "[Example 8 (from Table 1), 1-(2-Methylphenyl-2'-methylphenyl-phenyl)-methyl-imidazole]", "MIC": 10},
      {"smiles": "Cc1cc(Cl)ccc1C(c1ccccc1)(c1ccccc1)n1ccnc1", "note": "[Example 4 (from Table 1), 1-(2-Methyl-4-chlorophenyl-diphenyl)-methyl-imidazole]", "MIC": 10},
      {"smiles": "Cc1ccc(C(c2ccccc2)(c2ccccc2)n2ccnc2)c(C)c1", "note": "[Example 2]", "MIC": 4},
      {"smiles": "Cc1ccc(C)c(C(c2ccccc2)(c2ccccc2)n2ccnc2)c1", "note": "[Example 3 (from Table 1), 1-(2,5-Dimethylphenyl-diphenyl)-methyl-imidazole]", "MIC": 40},
      {"smiles": "Clc1cccc(Cl)c1C(c1ccccc1)(c1ccccc1)n1ccnc1", "note": "[Example 7 (from Table 1), 1-(2,6-Dichlorophenyl-diphenyl)-methyl-imidazole]", "MIC": 4}
    ]},
    {"system": "Trichophyton mentagrophytes", "experiment": "Antimycotic activity in vitro, series dilution test", "assay_type": "cell-based", "details": "n.s. = no added serum, 28° C, 24 to 96 hours, read-out: Minimum Inhibitory Concentration", "protocol": "as §1, §2, §3", "units": {"MIC": "µg/mL"}, "values": [
      {"smiles": "Clc1cccc(C(c2ccccc2)(c2ccccc2)n2ccnc2)c1Cl", "note": "[Example 6]", "MIC": "< 1"},
      {"smiles": "Cc1ccc(C(c2ccccc2)(c2ccccc2)n2ccnc2)c(C)c1", "note": "[Example 2]", "MIC": "< 1"}
    ]},
    {"system": "Trichophyton mentagrophytes", "experiment": "Antimycotic activity in vitro, series dilution test", "assay_type": "cell-based", "details": "w.s. = with 30% serum added, 28° C, 24 to 96 hours, read-out: Minimum Inhibitory Concentration", "protocol": "as §1, §2, §3", "units": {"MIC": "µg/mL"}, "values": [
      {"smiles": "Clc1cccc(C(c2ccccc2)(c2ccccc2)n2ccnc2)c1Cl", "note": "[Example 6]", "MIC": 4},
      {"smiles": "Cc1ccc(C(c2ccccc2)(c2ccccc2)n2ccnc2)c(C)c1", "note": "[Example 2]", "MIC": 10}
    ]},
    {"system": "Penicillium commune", "experiment": "Antimycotic activity in vitro, series dilution test", "assay_type": "cell-based", "details": "28° C, 24 to 96 hours, serum not stated, read-out: Minimum Inhibitory Concentration", "protocol": "as §1, §2, §3", "units": {"MIC": "µg/mL"}, "values": [
      {"smiles": "Clc1cccc(C(c2ccccc2)(c2ccccc2)n2ccnc2)c1Cl", "note": "[Example 6]", "MIC": 4},
      {"smiles": "Clc1ccccc1C(c1ccccc1)(c1ccccc1Cl)n1ccnc1", "note": "[Example 9 (from Table 1), 1-(2-Chlorophenyl-2'-chlorophenyl-phenyl) -methyl-imidazole]", "MIC": 1},
      {"smiles": "Cc1ccccc1C(c1ccccc1)(c1ccccc1C)n1ccnc1", "note": "[Example 8 (from Table 1), 1-(2-Methylphenyl-2'-methylphenyl-phenyl)-methyl-imidazole]", "MIC": 10},
      {"smiles": "Cc1cccc(C(c2ccccc2)(c2ccccc2)n2ccnc2)c1C", "note": "[Example 1 (from Table 1), 1-(2,3-dimethylphenyl-diphenyl)-methyl-imidazole]", "MIC": "< 1"},
      {"smiles": "Cc1cc(Cl)ccc1C(c1ccccc1)(c1ccccc1)n1ccnc1", "note": "[Example 4 (from Table 1), 1-(2-Methyl-4-chlorophenyl-diphenyl)-methyl-imidazole]", "MIC": 4},
      {"smiles": "Cc1ccc(C(c2ccccc2)(c2ccccc2)n2ccnc2)c(C)c1", "note": "[Example 2]", "MIC": 100},
      {"smiles": "Cc1ccc(C)c(C(c2ccccc2)(c2ccccc2)n2ccnc2)c1", "note": "[Example 3 (from Table 1), 1-(2,5-Dimethylphenyl-diphenyl)-methyl-imidazole]", "MIC": 4},
      {"smiles": "Clc1cccc(Cl)c1C(c1ccccc1)(c1ccccc1)n1ccnc1", "note": "[Example 7 (from Table 1), 1-(2,6-Dichlorophenyl-diphenyl)-methyl-imidazole]", "MIC": 4}
    ]}
  ]
}
